Among the data in paper PMC10175918 (Communications Biology, 2023) are activation values, retold here.

Experiment in all cases: TGFα-shedding assay-based GPCR screening with chimeric Gα subunit proteins
What all share (type): cell-based

For assay [1], the target named is T1, 348 GPCRs (Homo sapiens, UniProt P04000).
T1 construct: expressed in transfected cells; host or cells: HEK293A
T1 sequence (P04000 1-364): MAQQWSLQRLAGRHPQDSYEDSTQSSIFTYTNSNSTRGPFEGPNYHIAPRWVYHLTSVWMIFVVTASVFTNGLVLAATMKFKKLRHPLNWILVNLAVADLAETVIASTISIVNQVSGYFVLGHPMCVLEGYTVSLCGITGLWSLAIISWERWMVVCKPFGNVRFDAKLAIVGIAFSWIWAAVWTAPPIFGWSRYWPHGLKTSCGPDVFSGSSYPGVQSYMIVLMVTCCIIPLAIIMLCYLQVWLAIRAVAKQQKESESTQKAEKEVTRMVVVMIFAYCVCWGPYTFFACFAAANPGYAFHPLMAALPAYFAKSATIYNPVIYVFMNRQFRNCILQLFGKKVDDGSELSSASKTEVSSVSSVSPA
The following applies: 10µM, Favipiravir 100μM.

In assay [2] the target is T2, 348 GPCRs (Homo sapiens, UniProt P30988).
T2 sequence (P30988 25-474): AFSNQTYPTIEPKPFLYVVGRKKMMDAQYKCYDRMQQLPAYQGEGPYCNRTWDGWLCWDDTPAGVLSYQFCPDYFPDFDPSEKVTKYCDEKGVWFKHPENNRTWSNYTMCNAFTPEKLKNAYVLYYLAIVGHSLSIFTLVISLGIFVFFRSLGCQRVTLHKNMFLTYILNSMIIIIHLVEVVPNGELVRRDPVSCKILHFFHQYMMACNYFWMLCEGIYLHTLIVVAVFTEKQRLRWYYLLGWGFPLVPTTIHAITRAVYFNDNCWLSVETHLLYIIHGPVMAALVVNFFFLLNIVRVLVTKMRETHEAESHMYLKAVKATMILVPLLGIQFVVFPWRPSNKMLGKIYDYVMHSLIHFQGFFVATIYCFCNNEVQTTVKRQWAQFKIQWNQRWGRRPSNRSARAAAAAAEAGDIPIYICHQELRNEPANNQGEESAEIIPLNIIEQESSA
The following applies: 10µM, Favipiravir 100μM.

In assay [3] the target is T3, 348 GPCRs (Homo sapiens, UniProt P41231).
T3 construct: expressed in transfected cells; host or cells: HEK293A

Assay [4] concerns the target T4, 348 GPCRs (Homo sapiens, UniProt Q49SQ1).
T4 construct: expressed in transfected cells; host or cells: HEK293A
T4 sequence (Q49SQ1 1-333): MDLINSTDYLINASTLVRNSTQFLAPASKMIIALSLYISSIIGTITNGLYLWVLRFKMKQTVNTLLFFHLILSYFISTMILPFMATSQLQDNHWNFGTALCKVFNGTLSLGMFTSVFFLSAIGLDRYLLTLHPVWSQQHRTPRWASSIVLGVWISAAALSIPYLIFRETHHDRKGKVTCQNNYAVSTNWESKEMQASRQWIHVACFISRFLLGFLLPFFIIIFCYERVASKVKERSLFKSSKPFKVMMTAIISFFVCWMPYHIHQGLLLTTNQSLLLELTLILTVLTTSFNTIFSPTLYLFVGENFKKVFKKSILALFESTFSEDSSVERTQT
Conditions: 10µM, Favipiravir 100μM.

For assay [5], the target named is T5, 348 GPCRs (Homo sapiens, UniProt Q5T601).
T5 construct: expressed in transfected cells; host or cells: HEK293A
T5 sequence (Q5T601 20-910): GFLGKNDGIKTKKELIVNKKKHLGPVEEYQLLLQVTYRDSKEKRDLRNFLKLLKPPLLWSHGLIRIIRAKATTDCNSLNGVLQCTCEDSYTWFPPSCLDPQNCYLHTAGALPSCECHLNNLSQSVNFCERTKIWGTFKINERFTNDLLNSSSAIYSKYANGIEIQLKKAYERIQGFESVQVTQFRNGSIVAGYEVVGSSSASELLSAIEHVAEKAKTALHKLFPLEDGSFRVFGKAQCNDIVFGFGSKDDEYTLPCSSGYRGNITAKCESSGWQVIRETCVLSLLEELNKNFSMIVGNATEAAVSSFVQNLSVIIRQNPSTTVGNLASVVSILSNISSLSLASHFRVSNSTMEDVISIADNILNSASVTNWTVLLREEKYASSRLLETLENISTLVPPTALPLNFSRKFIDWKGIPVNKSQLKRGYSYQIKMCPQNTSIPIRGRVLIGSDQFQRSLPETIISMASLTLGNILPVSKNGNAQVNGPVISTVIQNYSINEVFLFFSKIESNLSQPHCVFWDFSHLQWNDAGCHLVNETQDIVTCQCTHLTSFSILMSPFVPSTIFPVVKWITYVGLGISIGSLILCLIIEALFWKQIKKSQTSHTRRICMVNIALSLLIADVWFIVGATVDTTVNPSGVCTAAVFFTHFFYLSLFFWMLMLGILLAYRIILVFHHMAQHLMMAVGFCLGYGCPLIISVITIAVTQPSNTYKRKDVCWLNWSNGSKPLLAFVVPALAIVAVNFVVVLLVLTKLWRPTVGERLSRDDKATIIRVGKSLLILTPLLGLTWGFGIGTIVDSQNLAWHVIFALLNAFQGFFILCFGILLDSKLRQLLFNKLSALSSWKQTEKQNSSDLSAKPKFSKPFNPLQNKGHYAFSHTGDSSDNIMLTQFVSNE

The target of assay [6] is T6, 348 GPCRs (Homo sapiens, UniProt Q8NDV2).
T6 construct: expressed in transfected cells; host or cells: HEK293A
The following applies: 10µM, Favipiravir 100μM.

The target in assay [7] is T7, 348 GPCRs (Homo sapiens, UniProt Q9Y5X5).
T7 construct: expressed in transfected cells; host or cells: HEK293A
Conditions: 10µM, Favipiravir 100μM.

The mark [8] stands for this setting: OPN1LW (opsin 1 (cone pigments), long-wave-sensitive), read-out: % GPCR activation compared to TPA.
Setting [9] is: CALCR (calcitonin receptor), read-out: % GPCR activation compared to TPA.
[10] abbreviates: GPCR P2Y2 (purinergic receptor P2Y, G-protein coupled, 2), read-out: % GPCR activation compared to TPA.
Where [11] appears, read: GPR33 (G protein-coupled receptor 33), read-out: % GPCR activation compared to TPA.
[12] abbreviates: GPCR GPR110 (G-protein-coupled receptor 110 (ADGRF1)), read-out: % GPCR activation compared to TPA.
Setting [13] is: GPR26 (G Protein-Coupled Receptor 26), read-out: % GPCR activation compared to TPA.
[14] abbreviates: NPFF2 (neuropeptide FF receptor 2), read-out: % GPCR activation compared to TPA.
Where [15] appears, read: read-out: % GPCR activation compared to TPA, OPN1LW (opsin 1 (cone pigments), long-wave-sensitive).
The mark [16] stands for this setting: read-out: % GPCR activation compared to TPA, CALCR (calcitonin receptor).
The mark [17] stands for this setting: read-out: % GPCR activation compared to TPA, GPCR P2Y2 (purinergic receptor P2Y, G-protein coupled, 2).
The mark [18] stands for this setting: read-out: % GPCR activation compared to TPA, GPR33 (G protein-coupled receptor 33).
The mark [19] stands for this setting: read-out: % GPCR activation compared to TPA, GPCR GPR110 (G-protein-coupled receptor 110 (ADGRF1)).
Setting [20] is: read-out: % GPCR activation compared to TPA, GPR26 (G Protein-Coupled Receptor 26).
The mark [21] stands for this setting: read-out: % GPCR activation compared to TPA, NPFF2 (neuropeptide FF receptor 2).

Where two headings read alike, the source gives them in different places.

T7 sequence (Q9Y5X5 whole entry): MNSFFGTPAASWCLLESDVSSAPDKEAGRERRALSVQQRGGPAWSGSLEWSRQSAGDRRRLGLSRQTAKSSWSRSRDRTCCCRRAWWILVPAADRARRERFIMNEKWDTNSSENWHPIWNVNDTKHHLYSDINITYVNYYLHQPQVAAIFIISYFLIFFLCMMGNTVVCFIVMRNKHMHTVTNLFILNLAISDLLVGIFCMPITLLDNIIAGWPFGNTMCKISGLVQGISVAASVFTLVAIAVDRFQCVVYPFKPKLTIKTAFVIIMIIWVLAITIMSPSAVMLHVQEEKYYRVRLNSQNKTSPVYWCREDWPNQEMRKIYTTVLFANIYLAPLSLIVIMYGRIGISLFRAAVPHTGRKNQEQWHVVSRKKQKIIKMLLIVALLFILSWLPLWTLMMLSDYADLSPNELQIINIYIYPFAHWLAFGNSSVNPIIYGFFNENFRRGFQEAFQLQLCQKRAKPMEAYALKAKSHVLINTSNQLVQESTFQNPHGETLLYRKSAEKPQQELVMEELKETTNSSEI
T3 sequence (P41231 whole entry): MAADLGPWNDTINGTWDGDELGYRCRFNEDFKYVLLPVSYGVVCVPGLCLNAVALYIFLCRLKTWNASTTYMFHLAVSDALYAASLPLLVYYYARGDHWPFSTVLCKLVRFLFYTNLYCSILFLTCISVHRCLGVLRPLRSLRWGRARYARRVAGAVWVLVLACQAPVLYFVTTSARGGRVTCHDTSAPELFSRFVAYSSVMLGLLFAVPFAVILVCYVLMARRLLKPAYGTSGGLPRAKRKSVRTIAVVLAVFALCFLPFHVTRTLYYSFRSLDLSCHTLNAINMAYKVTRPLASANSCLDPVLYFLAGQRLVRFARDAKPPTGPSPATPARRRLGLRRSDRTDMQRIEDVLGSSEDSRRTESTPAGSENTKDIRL
T6 sequence (Q8NDV2 whole entry): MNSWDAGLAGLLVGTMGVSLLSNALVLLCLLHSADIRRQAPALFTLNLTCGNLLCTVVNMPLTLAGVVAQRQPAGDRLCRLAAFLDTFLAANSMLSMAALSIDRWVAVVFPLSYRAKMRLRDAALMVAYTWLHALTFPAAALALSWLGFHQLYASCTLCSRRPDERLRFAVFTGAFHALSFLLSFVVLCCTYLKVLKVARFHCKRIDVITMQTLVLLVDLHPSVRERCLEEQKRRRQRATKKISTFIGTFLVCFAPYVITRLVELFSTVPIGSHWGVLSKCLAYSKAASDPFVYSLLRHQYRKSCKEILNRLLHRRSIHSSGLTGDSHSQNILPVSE

`CC(C)C(=O)OC[C@H]1O[C@@H](n2ccc(NO)nc2=O)[C@H](O)[C@@H]1O` [molnupiravir]: the activation at 100 µM on 348 GPCRs [1] (setting [8]) was 0.884%; at 348 GPCRs [2] (setting [9]), -0.059%; on 348 GPCRs [6] (setting [13]), -0.581%. Further, the activation at 10 µM was -58.1% at 348 GPCRs [3] (setting [10]), -3.96% at 348 GPCRs [4] (setting [11]), -0.00488% at 348 GPCRs [5] (setting [12]) and -0.917% at 348 GPCRs [7] (setting [14]).

As to `CC(C)OC(=O)[C@H](C)N[P@](=O)(OC[C@H]1O[C@@H](n2ccc(=O)[nH]c2=O)[C@](C)(F)[C@@H]1O)Oc1ccccc1` [sofosbuvir], the activation at 100 µM at 348 GPCRs [1] (setting [15]) was -0.65%; on 348 GPCRs [2] (setting [16]), -2.01%; at 348 GPCRs [6] (setting [20]), 0.171%. Moreover, the activation at 10 µM is -41.7% at 348 GPCRs [3] (setting [17]), -2.13% on 348 GPCRs [4] (setting [18]), 0.252% on 348 GPCRs [5] (setting [19]) and -0.549% on 348 GPCRs [7] (setting [21]).

In the case of `N#C[C@@]1(c2ccc3c(N)ncnn23)O[C@H](CO)[C@@H](O)[C@H]1O` [GS441524], the figures for the activation at 100 µM at 348 GPCRs [1] (setting [8]), on 348 GPCRs [2] (setting [9]) and on 348 GPCRs [6] (setting [13]) were -0.985%, -3.54% and -0.116%, respectively. Besides, the activation at 10 µM was -17.2% on 348 GPCRs [3] (setting [10]), 3.02% at 348 GPCRs [4] (setting [11]), -1.67% on 348 GPCRs [5] (setting [12]) and -0.904% at 348 GPCRs [7] (setting [14]).

Take `NC(=O)c1nc(F)cnc1O` [favipiravir, 6-fluoro-3-hydroxy-2-pyrazinecarboxamide]: the activation at 100 µM on 348 GPCRs [1] (setting [8]) is 0.263%; on 348 GPCRs [2] (setting [9]) it was -3.06%; on 348 GPCRs [3] (GPCR P2Y2 (purinergic receptor P2Y, G-protein coupled, 2), 100μM, read-out: % GPCR activation compared to TPA), -23%; on 348 GPCRs [5] (GPCR GPR110 (G-protein-coupled receptor 110 (ADGRF1)), 100μM, read-out: % GPCR activation compared to TPA), -3.88%; on 348 GPCRs [6] (setting [13]) it was -0.29%. Moreover, the results for the activation at 10 µM on 348 GPCRs [4] (setting [11]) and on 348 GPCRs [7] (setting [14]) were -0.127% and -0.818%, respectively.

As to `CCC(CC)COC(=O)[C@H](C)N[P@](=O)(OC[C@H]1O[C@@](C#N)(c2ccc3c(N)ncnn23)[C@H](O)[C@@H]1O)Oc1ccccc1` [remdesivir], the activation at 100 µM at 348 GPCRs [1] (setting [15]) is 0.199%; at 348 GPCRs [2] (setting [16]), 1.27%; at 348 GPCRs [6] (setting [20]), 0.188%. Moreover, the activation at 10 µM at 348 GPCRs [3] (setting [17]) was -6.22%; at 348 GPCRs [4] (setting [18]) it was 2.55%; on 348 GPCRs [5] (setting [19]) it was -1.5%; on 348 GPCRs [7] (setting [21]) it was -0.846%.
